Consider ten compounds from patent US10189813B2, “Formylated N-heterocyclic derivatives as FGFR4 inhibitors” (NOVARTIS AG, priority 2015, dated 2019).

The target in test [1] is T1, FGFR4 (GST-FGFR4(388-802)) (Homo sapiens, UniProt P22455).
T1 construct: GST-FGFR4(388-802); GST (N); made in house; host or cells: insect cells
As to the kind of experiment: In-vitro biochemical kinase assay for FGFR4 (Caliper mobility shift). As to conditions: 60 minutes at 30° C. On the procedure: In-Vitro Biochemical Kinase Assays for FGFR4
All assays were performed in 384 well microtiter plates. Each assay plate contained 8-point serial dilutions for 40 test compounds, as well as four 8-point serial dilutions of staurosporine as reference compound, plus 16 high and 16 low controls.
(§1) Liquid handling and incubation steps were done on an Innovadyne Nanodrop Express equipped with a robotic arm (Thermo CatX, Caliper Twister II) and an incubator (Liconic STX40, Thermo Cytomat 2C450). The assay plates were prepared by addition of 50 nI per well of compound solution in 90% DMSO. […] Kinase reactions were incubated at 30° C. for 60 minutes and subsequently terminated by addition of 16 μl per well of stop solution (100 mM HEPES pH 7.5, 5% DMSO, 0.1% Caliper coating reagent, 10 mM EDTA, and 0.015% Brij35). Plates with terminated kinase reactions were transferred to the Caliper LC3000 workstations for reading. Phosphorylated and unphosphorylated peptides were separated using the Caliper microfluidic mobility shift technology. Briefly, samples from terminated kinase reactions were applied to the chip. Analytes are transported through the chip by constant buffer flow and the migration of the substrate peptide is monitored by the fluorescence signal of its label. Phosphorylated peptide (product) and unphosphorylated peptide (substrate) are separated in an electric field by their charge/mass ratio. Kinase activities were calculated from the amounts of formed phospho-peptide. IC50 values were determined from percent inhibition values at different compound concentrations by non-linear regression analysis.
Preparation of Compound Dilutions
Test compounds were dissolved in DMSO (10 mM) and transferred into 1.4 mL flat bottom or V-shaped Matrix tubes carrying a unique 2D matrix. The stock solutions were stored at […] if not used immediately. For the test procedure the vials were defrosted and identified by a scanner whereby a working sheet was generated that guided the subsequent working steps.
Compound dilutions were made in 96 well plates. This format enabled the assay of maximally 40 individual test compounds at 8 concentrations (single points) including 4 reference compounds. The dilution protocol included the production of “pre-dilution plates”, “master plates” and “assay plates”.
96 polypropylene well plates were used as pre-dilution plates. A total of 4 pre-dilution plates were prepared including 10 test compounds each on the plate positions A1-A10, one standard compound at A11 and one DMSO control at A12. All dilution steps were done on a HamiltonSTAR robot.
These plates were used directly for the assay which was performed in a total volume of 9.05 μL.

Test [2] concerns the target T2, FGFR1 (407-822) (Homo sapiens, UniProt P11362).
T2 construct: FGFR1 (407-822)
As to the kind of experiment: In vitro biochemical assay for FGFR1. On the procedure:
as §1
(§2) In vitro biochemical assays for FGFR1 (407-822), FGFR2 (406-821) and FGFR3 (411-806) were conducted in a similar manner to the in vitro biochemical assay for FGFR4 described above, using the indicated portions of the kinase domains. The following examples all produced IC50 values >10000 nM in the biochemical FGFR1, FGFR2 and FGFR3 assays: 2, 3, 4, 11, 13, 16, 17, 18, 20, 28, 30.

The target of test [3] is BaF3-Tel-FGFR4 cells (TEL fused to cytoplasmic domain of FGFR4) (Homo sapiens, UniProt P22455). Nature of the test: In vitro cellular kinase assay for FGFR4 (BaF3-Tel-FGFR4, MSD capture ELISA of tyrosine phosphorylation). The note with it: 1 hour incubation. A general note: An ELISA detects its analyte on a solid surface through an enzyme-linked reagent.
The target in test [4] is T3, FGFR3 (411-806) (Homo sapiens, UniProt P22607).
T3 construct: FGFR3 (411-806)
As to the kind of experiment: In vitro biochemical assay for FGFR3. On the procedure: as §1, §2

Test [5] concerns the target T4, FGFR2 (406-821) (Homo sapiens, UniProt P21802).
T4 construct: FGFR2 (406-821)
As to the kind of experiment: In vitro biochemical assay for FGFR2. On the procedure: as §1, §2

For test [6], the system named is HuH-7 hepatocellular carcinoma cells. Nature of the test: Methylene blue staining proliferation assay (MBS). In kind it is cell-based. As to conditions: Homo sapiens, HuH-7 cells, 72 hours, read-out: HUH7 proliferation MBS. On the procedure:
Methylene Blue Staining Proliferation Assay (MBS):
The effect of compounds on cell proliferation is assessed using HuH-7 hepatocellular carcinoma cells obtained from the Japanese Collection of Research Bioresources Cell Bank (Cat# JCRB0403) and cultured in the vendor-recommended medium (DMEM high glucose (Amimed Cat#1-26F01-I), 10% foetal calf serum (Invitrogen Cat#16140-071), 1 mM sodium pyruvate (Amimed Cat#5-60F00-H), 1× Penicillin/Streptomycin (Amimed Cat#4-01F00-H)) at 37° C. in a humidified 5% CO2 incubator. […] 72 hours after compound addition, cells were fixed by adding 25 μL/well of 20% glutaraldehyde (Sigma Aldrich Cat# G400-4) and incubated for 10 minutes at room temperature. Cells were washed three times with H2O, 200 μL/well and stained with 100 μL/well 0.05% methylene blue (ABCR GmbH Cat# AB117904) for 10 minutes at room temperature. Cells were washed 3 times with H2O, 200 μL/well and then lysed by adding 200 μL/well of 3% HCl (Fluka Cat#84422) for 30 minutes at room temperature with shaking. Optical density was measured at A650 nm. The concentration of compound providing 50% of proliferation inhibition with respect to DMSO-treated cells was determined (IC50) using XLFit software.

Test [7] has the same test system. As to the kind of experiment: CellTiter Glo (CTG) proliferation/viability assay. It is filed as cell-based. The note with it: HuH-7 cells, 3 days, half-maximal growth inhibition (GI50), read-out: HUH7 proliferation CTG. On the procedure:
CellTiter Glo (CTG) Assay:
The functional effect of compounds on cell proliferation is assessed using HuH-7 hepatocellular carcinoma cells obtained from the Japanese Collection of Research Bioresources Cell Bank (Cat# JCRB0403) and cultured in the vendor-recommended medium (DMEM high glucose (Amimed Cat#1-26F01-I), 10% foetal calf serum (Invitrogen Cat#16140-071), 1 mM sodium pyruvate (Amimed Cat#5-60F00-H), 1× Penicillin/Streptomycin (Amimed Cat#4-01F00-H)) at 37° C. in a humidified 5% CO2 incubator. Compound-mediated suppression of cell proliferation/viability is assessed by quantification of cellular ATP levels using the CellTiter-Glo (CTG) reagent (Promega, Cat# G7573). Briefly, cells are seeded at 3′000 cells/well/80 μl fresh medium into tissue-culture-treated 96-well plates (Costar Cat#3904), followed by addition of 20 μl medium containing compound dilutions at 5-fold their final intended concentration. Dose-response effects are assessed by 3-fold serial dilutions of the test compound, starting at 10 μM. Following incubation of the cells for 3 days at 37° C. and 5% CO2, the effect of inhibitors on cell viability is quantified following addition of 50 μl CTG and luminescence measurement (integration time: 500 ms) as per vendor manual, using a correspondingly equipped multi-mode plate reader (M200Pro, TECAN, Switzerland). For data analysis, the assay background value determined in wells containing medium, but no cells, is subtracted from all data points. To enable differentiation of cytotoxic from cytostatic compounds, the number of viable cells is assessed relative to that observed at the time of compound addition using a separate cell plate (day 0). The effect of a particular test compound concentration on cell proliferation/viability is expressed as percentage of the background- and day 0-corrected luminescence reading obtained for cells treated with vehicle only (DMSO, 0.1% f.c.), which is set as 100%, whereas the luminescence reading for wells containing medium only, but no cells, is set as −100%. Compound concentrations leading to half-maximal growth inhibition (GI50) are determined using standard four parameter curve fitting (XLfit 5.2., IDBS, UK).
A general note: ATP-based viability assays read luminescence as a measure of living cells.

T2 sequence (P11362 407-822): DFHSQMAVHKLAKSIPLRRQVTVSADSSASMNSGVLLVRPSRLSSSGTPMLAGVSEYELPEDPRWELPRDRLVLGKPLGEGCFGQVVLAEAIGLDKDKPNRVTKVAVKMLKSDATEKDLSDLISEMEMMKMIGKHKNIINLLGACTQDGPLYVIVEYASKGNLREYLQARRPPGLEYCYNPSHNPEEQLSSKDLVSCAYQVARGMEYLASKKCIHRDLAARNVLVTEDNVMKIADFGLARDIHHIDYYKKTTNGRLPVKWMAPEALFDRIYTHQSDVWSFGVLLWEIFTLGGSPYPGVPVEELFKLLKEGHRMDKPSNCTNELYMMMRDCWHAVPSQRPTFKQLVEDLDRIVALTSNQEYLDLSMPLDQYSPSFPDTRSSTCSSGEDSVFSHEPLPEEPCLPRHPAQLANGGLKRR
Sequence of BaF3-Tel-FGFR4 cells (TEL fused to cytoplasmic domain of FGFR4) (P22455 with tags, fused parts or gaps): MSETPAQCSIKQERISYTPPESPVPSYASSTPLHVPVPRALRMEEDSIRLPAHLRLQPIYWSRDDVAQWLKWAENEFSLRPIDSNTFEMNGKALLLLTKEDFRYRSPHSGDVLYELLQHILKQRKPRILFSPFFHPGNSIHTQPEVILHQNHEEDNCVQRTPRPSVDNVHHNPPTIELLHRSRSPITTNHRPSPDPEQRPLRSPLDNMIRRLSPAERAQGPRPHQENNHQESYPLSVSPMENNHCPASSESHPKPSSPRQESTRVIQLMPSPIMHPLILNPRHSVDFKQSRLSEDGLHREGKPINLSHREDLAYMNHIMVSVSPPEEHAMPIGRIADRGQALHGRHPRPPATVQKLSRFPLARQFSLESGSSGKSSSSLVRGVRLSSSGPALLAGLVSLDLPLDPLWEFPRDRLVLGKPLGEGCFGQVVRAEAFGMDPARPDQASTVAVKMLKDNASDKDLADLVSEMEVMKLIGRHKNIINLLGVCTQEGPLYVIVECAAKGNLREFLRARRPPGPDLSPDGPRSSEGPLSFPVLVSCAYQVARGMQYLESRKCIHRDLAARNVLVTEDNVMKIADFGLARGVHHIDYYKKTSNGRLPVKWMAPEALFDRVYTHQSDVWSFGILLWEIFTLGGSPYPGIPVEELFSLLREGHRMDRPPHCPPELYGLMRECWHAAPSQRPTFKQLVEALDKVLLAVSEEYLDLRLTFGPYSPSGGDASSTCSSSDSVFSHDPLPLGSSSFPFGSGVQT
T1 sequence (P22455 388-802): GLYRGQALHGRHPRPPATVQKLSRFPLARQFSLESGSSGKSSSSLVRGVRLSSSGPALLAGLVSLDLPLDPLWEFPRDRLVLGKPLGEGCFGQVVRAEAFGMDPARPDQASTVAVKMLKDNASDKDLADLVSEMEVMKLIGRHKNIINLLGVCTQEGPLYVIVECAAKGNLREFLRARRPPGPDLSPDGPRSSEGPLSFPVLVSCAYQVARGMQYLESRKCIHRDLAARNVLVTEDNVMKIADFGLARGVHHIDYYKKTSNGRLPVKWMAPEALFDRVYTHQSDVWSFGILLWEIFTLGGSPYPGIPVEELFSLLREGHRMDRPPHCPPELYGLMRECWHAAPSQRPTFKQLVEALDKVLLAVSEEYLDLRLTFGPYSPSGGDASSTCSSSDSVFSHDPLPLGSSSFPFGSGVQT
T4 sequence (P21802 406-821): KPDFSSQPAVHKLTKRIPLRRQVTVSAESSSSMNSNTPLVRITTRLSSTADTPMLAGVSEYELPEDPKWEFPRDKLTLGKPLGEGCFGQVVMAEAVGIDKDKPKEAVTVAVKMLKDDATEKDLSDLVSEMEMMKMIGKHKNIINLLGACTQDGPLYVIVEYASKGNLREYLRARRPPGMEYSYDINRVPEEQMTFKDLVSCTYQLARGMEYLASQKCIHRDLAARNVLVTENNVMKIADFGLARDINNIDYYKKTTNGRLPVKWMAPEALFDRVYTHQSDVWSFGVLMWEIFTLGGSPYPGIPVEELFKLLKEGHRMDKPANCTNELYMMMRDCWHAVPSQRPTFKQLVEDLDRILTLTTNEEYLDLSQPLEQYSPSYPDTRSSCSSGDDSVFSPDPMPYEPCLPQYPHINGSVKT
T3 sequence (P22607 411-806): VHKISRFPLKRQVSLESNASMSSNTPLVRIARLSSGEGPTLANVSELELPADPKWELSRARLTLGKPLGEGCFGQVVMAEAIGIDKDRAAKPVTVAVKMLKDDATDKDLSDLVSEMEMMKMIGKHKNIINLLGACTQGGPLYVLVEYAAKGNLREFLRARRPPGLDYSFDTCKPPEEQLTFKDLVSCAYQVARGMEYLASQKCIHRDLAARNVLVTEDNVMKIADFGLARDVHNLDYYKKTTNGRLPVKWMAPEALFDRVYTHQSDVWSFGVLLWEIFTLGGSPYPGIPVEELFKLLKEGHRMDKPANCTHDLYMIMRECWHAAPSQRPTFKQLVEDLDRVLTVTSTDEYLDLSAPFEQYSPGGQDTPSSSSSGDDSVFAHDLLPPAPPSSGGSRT

In the case of `COCCNc1cc(NC(=O)N(CC2CCOC2)c2cccc(C=O)n2)ncc1C#N` (racemic) [Example 4, 3-(5-cyano-4-((2-methoxyethyl)amino)pyridin-2-yl)-1-(6-formylpyridin-2-yl)-1-((tetrahydrofuran-3-yl)methyl)urea], the IC50 was 0.0019 µM in test [1]; more than 10 µM in test [2]; 0.268 µM in test [3]; more than 10 µM in test [4]; more than 10 µM in test [5].

On to `COCCNc1cc(NC(=O)N(C)c2ccc(C(=O)O)c(C=O)n2)ncc1C#N` [Example 9, 6-(3-(5-cyano-4-((2-methoxyethyl)amino)pyridin-2-yl)-1-methylureido)-2-formylnicotinic acid], for which the IC50 in test [6] is more than 3 µM; in test [1], 0.0013 µM; in test [7] (Homo sapiens, Huh-7, 72 h), more than 3 µM; in test [3], 1.27 µM.

As to `CCN(C(=O)Nc1cc(NCCOC)c(C#N)cn1)c1ccc(-c2cnn(C)c2)c(C=O)n1` [Example 10, 3-(5-cyano-4-((2-methoxyethyl)amino)pyridin-2-yl)-1-ethyl-1-(6-formyl-5-(1-methyl-1H-pyrazol-4-yl)pyridin-2-yl)urea], the IC50 in test [6] was found to be 1.09 µM; in test [1], 0.01 µM; in test [3], 0.013 µM.

For the compound `CCN(C(=O)Nc1cc(NC(C)C)c(C#N)cn1)c1ccc(-c2cnn(C)c2)c(C=O)n1` [Example 11, 3-(5-cyano-4-(isopropylamino)pyridin-2-yl)-1-ethyl-1-(6-formyl-5-(1-methyl-1H-pyrazol-4-yl)pyridin-2-yl)urea], the IC50 in test [1] was 0.0056 µM; in test [2] it was more than 10 µM; in test [3], 0.017 µM; in test [4], more than 10 µM; in test [5], more than 10 µM.

As for `COCCNc1cc(NC(=O)N(C)c2ccc(-c3cnn(C)c3)c(C=O)n2)ncc1C#N` [Example 13, 3-(5-cyano-4-((2-methoxyethyl)amino)pyridin-2-yl)-1-methyl-1-(6-formyl-5-(1-methyl-1H-pyrazol-4-yl)pyridin-2-yl)urea], the IC50 in test [1] is 0.0058 µM; in test [2], more than 10 µM; in test [7] (Homo sapiens, Huh-7, 72 h), 0.664 µM; in test [3], 0.053 µM; in test [4], more than 10 µM; in test [5], more than 10 µM.

`COCCNc1cc(NC(=O)N(C)c2ccc(CN(C)C(C)=O)c(C=O)n2)ncc1C#N` [Example 15, N-((6-(3-(5-cyano-4-((2-methoxyethyl)amino)pyridin-2-yl)-1-methylureido)-2-formylpyridin-3-yl)methyl)-N-methylacetamide]: the IC50 in test [6] worked out at 0.025 µM; in test [7] (Homo sapiens, Huh-7, 72 h), 0.106 µM; in test [3] it was 0.0048 µM.

In the case of `CC(C)Oc1cc(NC(=O)N(C)c2ccc(CN3CCN(C)CC3)c(C=O)n2)ncc1C#N` [Example 17, 3-(5-cyano-4-isopropoxypyridin-2-yl)-1-(6-formyl-5-((4-methylpiperazin-1-yl)methyl)pyridin-2-yl)-1-methylurea], the IC50 was 0.029 µM in test [1]; more than 10 µM in test [2]; 2.76 µM in test [7] (Homo sapiens, Huh-7, 72 h); 0.145 µM in test [3]; more than 10 µM in test [4]; more than 10 µM in test [5].

As to `COCCNc1cc(NC(=O)N(C)c2ccc(CN3CCCC3=O)c(C=O)n2)ncc1C#N` [Example 20, 3-(5-cyano-4-((2-methoxyethyl)amino)pyridin-2-yl)-1-(6-formyl-5-((2-oxopyrrolidin-1-yl)methyl)pyridin-2-yl)-1-methylurea], the IC50 was 0.0043 µM in test [1]; more than 10 µM in test [2]; 0.1 µM in test [7] (Homo sapiens, Huh-7, 72 h); 0.0053 µM in test [3]; more than 10 µM in test [4]; more than 10 µM in test [5].

`COCCNc1cc(Nc2ccnn2-c2ccc(-c3cnn(C)c3)c(C=O)n2)ncc1C(F)(F)F` [Example 28, 6-(5-((4-((2-methoxyethyl)amino)-5-(trifluoromethyl)pyridin-2-yl)amino)-1H-pyrazol-1-yl)-3-(1-methyl-1H-pyrazol-4-yl)picolinaldehyde]: the IC50 in test [1] was 0.48 µM; in test [2], more than 10 µM; in test [7] (Homo sapiens, Huh-7, 72 h) it was more than 3 µM; in test [7] it was 2.66 µM; in test [3], 2.64 µM; in test [4] it was more than 10 µM. In test [5], this compound had an IC50 of more than 10 µM.

In the case of `CC(C)Oc1cc(NC(=O)Nc2nccc(C=O)n2)ncc1C#N` [Example 30, 1-(5-cyano-4-isopropoxypyridin-2-yl)-3-(4-formylpyrimidin-2-yl)urea], the IC50 in test [1] was 0.1 µM; in test [2], more than 10 µM; in test [7] (Homo sapiens, Huh-7, 72 h) it was more than 3 µM; in test [3], 0.982 µM; in test [4], more than 10 µM; in test [5], more than 10 µM.
